Data on two molecules can be found in paper PMC9950447, “Targeting USP10 induces degradation of oncogenic ANLN in esophageal squamous cell carcinoma” (Cell Death and Differentiation, 2022).

The target in assay [1] is T1, USP10 (Homo sapiens, UniProt Q14694).
T1 construct: His-USP10
The experiment in a line: SPR (Biacore T200, His-USP10 immobilized on CM5 chip); supported by Ub-AMC inhibition of purified USP10 (IC50 […]). It is filed as binding. (In general: In SPR one partner is held on a chip, and binding of the other changes the refractive index at the surface.)

Assay [2] has as its target recombinant GST-USP10 (human, UniProt Q14694-3 1-802). Briefly: pull-down; in vitro GST pull down: GST-tagged protein bound to GST Bind Resin in GST lysis buffer, His-tagged proteins added, 4 °C for 4 h, six washes with PBST, western blot. The following applies: both partners purified.

Sequence of recombinant GST-USP10 (Q14694 other isoform, or with tags, fused parts or gaps): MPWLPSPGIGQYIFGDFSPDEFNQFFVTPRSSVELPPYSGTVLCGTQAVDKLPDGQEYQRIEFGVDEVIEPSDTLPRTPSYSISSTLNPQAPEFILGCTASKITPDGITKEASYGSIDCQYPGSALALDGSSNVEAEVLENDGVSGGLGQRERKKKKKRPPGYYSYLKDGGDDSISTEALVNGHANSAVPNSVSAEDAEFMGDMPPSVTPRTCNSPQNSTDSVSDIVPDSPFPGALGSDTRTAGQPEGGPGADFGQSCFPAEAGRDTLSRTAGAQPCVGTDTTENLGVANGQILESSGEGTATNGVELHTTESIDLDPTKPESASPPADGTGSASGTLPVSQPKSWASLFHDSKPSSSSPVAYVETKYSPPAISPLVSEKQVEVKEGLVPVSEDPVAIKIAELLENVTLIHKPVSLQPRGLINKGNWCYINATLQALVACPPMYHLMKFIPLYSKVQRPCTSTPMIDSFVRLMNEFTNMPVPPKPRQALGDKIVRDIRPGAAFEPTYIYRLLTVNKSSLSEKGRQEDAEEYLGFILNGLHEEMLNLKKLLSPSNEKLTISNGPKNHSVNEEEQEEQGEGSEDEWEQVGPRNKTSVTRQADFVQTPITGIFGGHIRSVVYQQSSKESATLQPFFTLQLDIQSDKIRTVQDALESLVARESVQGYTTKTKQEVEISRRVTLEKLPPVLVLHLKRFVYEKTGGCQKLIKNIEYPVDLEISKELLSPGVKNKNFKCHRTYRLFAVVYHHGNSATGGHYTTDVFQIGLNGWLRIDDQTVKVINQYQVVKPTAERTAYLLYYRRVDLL
T1 sequence (Q14694 2-798): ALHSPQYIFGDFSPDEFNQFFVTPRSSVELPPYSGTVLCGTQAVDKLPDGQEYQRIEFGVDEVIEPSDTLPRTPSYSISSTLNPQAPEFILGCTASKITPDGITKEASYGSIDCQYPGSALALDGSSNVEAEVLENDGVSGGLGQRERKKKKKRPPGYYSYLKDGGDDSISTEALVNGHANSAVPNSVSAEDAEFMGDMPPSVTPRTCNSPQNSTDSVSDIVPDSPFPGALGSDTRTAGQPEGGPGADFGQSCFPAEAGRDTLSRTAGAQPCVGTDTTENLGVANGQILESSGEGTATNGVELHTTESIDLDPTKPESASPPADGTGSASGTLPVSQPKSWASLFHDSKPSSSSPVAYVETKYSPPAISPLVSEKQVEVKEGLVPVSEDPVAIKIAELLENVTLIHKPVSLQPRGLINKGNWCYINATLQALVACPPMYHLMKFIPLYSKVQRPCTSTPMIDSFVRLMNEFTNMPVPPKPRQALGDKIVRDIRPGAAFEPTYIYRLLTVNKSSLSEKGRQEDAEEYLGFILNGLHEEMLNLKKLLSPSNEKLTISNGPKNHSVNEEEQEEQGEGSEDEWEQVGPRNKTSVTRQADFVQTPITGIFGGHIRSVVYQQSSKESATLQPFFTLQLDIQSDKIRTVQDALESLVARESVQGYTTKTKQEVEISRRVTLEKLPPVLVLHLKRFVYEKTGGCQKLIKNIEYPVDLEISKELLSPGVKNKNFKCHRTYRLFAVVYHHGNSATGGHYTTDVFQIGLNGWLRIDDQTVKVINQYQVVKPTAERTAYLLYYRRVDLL

Turning to `CC1=C[C@H](C)C[C@H](C)[C@H](Cc2cnco2)OC(=O)/C(C)=C\[C@H](C)C[C@H](C)[C@H](Cc2cnco2)OC1=O` [F806, FW-04-806], the Kd in assay [1] is roughly 27.5 µM.

B1: His-ANLN amino acids 1-454 (domain or fragment, human, UniProt Q9NQW6 1-454, looked up)
chain: MDPFTEKLLERTRARRENLQRKMAERPTAAPRSMTHAKRARQPLSEASNQQPLSGGEEKSCTKPSPSKKRCSDNTEVEVSNLENKQPVESTSAKSCSPSPVSPQVQPQAADTISDSVAVPASLLGMRRGLNSRLEATAASSVKTRMQKLAEQRRRWDNDDMTDDIPESSLFSPMPSEEKAASPPRPLLSNASATPVGRRGRLANLAATICSWEDDVNHSFAKQNSVQEQPGTACLSKFSSASGASARINSSSVKQEATFCSQRDGDASLNKALSSSADDASLVNASISSSVKATSPVKSTTSITDAKSCEGQNPELLPKTPISPLKTGVSKPIVKSTLSQTVPSKGELSREICLQSQSKDKSTTPGGTGIKPFLERFGERCQEHSKESPARSTPHRTPIITPNTKAIQERLFKQDTSSSTTHLAQQLKQERQKELACLRGRFDKGNIWSAEKGG
notes: also called His-ANLN mutant
For B1, in assay [2], the binding result was “binds”.

The Kd is the constant that tells how readily two partners part at equilibrium.
